We go through 18 compounds from the supplement of paper PMC8498969.

Each structure is given as a SMILES string.

Assay [1] concerns HEK293. Nature of the assay: IC50 for inhibition of ZIKV NS1 production. On the procedure:
(§1)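 HEK293 cells in 1536-well plates were pre-treated with compound for 1 h, infected with ZIKV (MOI 1) for 24 h, and NS1 antigen (intra- plus extracellular) was measured by TR-FRET. Confirmation used 11-point 1:3 dilutions, and IC50 and maximal inhibition were fitted in GraphPad Prism.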

The subject of assay [2] is HEK293. Nature of the assay: cytotoxicity IC50 (ATP content, uninfected cells); higher = less cytotoxic. To be noted: infection: none.
Assay [3] concerns HEK293. Description: maximal inhibition of ZIKV NS1 production (% inhibition); higher = stronger antiviral effect. On the procedure:
as §1

As usually defined, the IC50 is the midpoint of a concentration-inhibition curve. With `CO[C@H]1[C@H](O)[C@@H](O)[C@H](n2c3c(Cl)cccc3c3c4c(c5c6cccc(Cl)c6[nH]c5c32)C(=O)NC4=O)O[C@@H]1CO`, in the assay with HEK293 [1], the IC50 is 2.1 µM. The “cytotoxicity IC50” value with HEK293 [2] stood at 60 µM. This compound also had a maximal inhibition with HEK293 [3] of 90.

In the assay with HEK293 [1], `C=CC(=O)N1CCc2ccc(-n3c(=O)ccc4cnc5ccc(-c6cnn(C)c6)cc5c43)cc21` showed an IC50 of 13 µM. Also, the “cytotoxicity IC50” value with HEK293 [2] was over 100 µM. Also, the maximal inhibition with HEK293 [3] worked out at 105.

Turning to `Cn1c(=O)c(-c2c(Cl)cccc2Cl)cc2cnc(Nc3ccc(N4CCOCC4)cc3)nc21`, the half-maximal inhibitory concentration (IC50) in the assay with HEK293 [1] is 2.1 µM. Moreover, in the assay on HEK293 [2], the “cytotoxicity IC50” value was found to be 6 µM. In the assay with HEK293 [3], this compound displayed a maximal inhibition of 102.

With `Cn1c2ccccc2c2c3c(c4c5ccccc5n(CCC#N)c4c21)CNC3=O`, the IC50 with HEK293 [1] was 0.94 µM. In the assay with HEK293 [2], the “cytotoxicity IC50” value worked out at 20 µM. Besides, the maximal inhibition in the assay with HEK293 [3] was 82.

For the compound `O=c1[nH]c2ccc(Cl)cc2c(N[C@@H]2CN3CCC2CC3)c1-c1nc2ccccc2[nH]1`, in the assay with HEK293 [1], the concentration for half-maximal inhibition (IC50) turned out to be 0.41 µM. In the assay with HEK293 [2], the “cytotoxicity IC50” value was 3.3 µM. The maximal inhibition in the assay on HEK293 [3] was found to be 100.

On to `C[C@H]1CCC/C=C/[C@@H]2C[C@H](O)C[C@H]2[C@H](O)/C=C/C(=O)O1`, for which the IC50 with HEK293 [1] worked out at 0.43 µM. Besides, the “cytotoxicity IC50” value in the assay on HEK293 [2] was over 100 µM. The same compound returned a maximal inhibition in the assay on HEK293 [3] of 99.

`C[C@]12O[C@H](C[C@]1(O)CO)n1c3ccccc3c3c4c(c5c6ccccc6n2c5c31)CNC4=O` came in with a half-maximal inhibitory concentration (IC50) in the assay on HEK293 [1] of 1.7 µM. In addition, the “cytotoxicity IC50” value with HEK293 [2] turned out to be 15 µM. In the assay on HEK293 [3], the maximal inhibition was 58.

For the compound `CCn1nnc2c(N3CCOCC3)nc(-c3ccc(NC(=O)Nc4ccc(C(=O)N5CCN(C)CC5)cc4)cc3)nc21`, in the assay on HEK293 [1], the IC50 was found to be 1.6 µM. The “cytotoxicity IC50” value with HEK293 [2] was found to be 0.65 µM. Also, in the assay with HEK293 [3], the maximal inhibition was found to be 79.

The compound `O=C1CCc2ccc(OCCCCN3CCN(c4cccc(Cl)c4Cl)CC3)cc2N1` had a half-maximal inhibitory concentration (IC50) with HEK293 [1] of 25 µM. In the assay with HEK293 [2], the “cytotoxicity IC50” value was determined as 20 µM. In the assay on HEK293 [3], this compound showed a maximal inhibition of 102.

Consider `CCCCCCCCc1ccc(CCC(N)(CO)CO)cc1`, for which, in the assay with HEK293 [1], the concentration for half-maximal inhibition (IC50) came out at 14 µM. For the same compound, the “cytotoxicity IC50” value in the assay on HEK293 [2] is over 100 µM. In the assay on HEK293 [3], the maximal inhibition was 102.

For the compound `Oc1c(Cl)cc(Cl)c2cccnc12`, the IC50 in the assay with HEK293 [1] was 46 µM. In addition, in the assay with HEK293 [2], the “cytotoxicity IC50” value stood at 16 µM. For the same compound, the maximal inhibition with HEK293 [3] worked out at 93.

Consider `Cc1c2oc3c(C)ccc(C(=O)N[C@@H]4C(=O)N[C@H](C(C)C)C(=O)N5CCC[C@H]5C(=O)N(C)CC(=O)N(C)[C@@H](C(C)C)C(=O)O[C@@H]4C)c3nc-2c(C(=O)N[C@@H]2C(=O)N[C@H](C(C)C)C(=O)N3CCC[C@H]3C(=O)N(C)CC(=O)N(C)[C@@H](C(C)C)C(=O)O[C@@H]2C)c(N)c1=O`, for which the concentration for half-maximal inhibition (IC50) in the assay with HEK293 [1] was 0.35 µM. Besides, the “cytotoxicity IC50” value in the assay with HEK293 [2] was over 100 µM. Moreover, the maximal inhibition with HEK293 [3] is 99.

The compound `S=C(SSC(=S)N1CCCCC1)N1CCCCC1` had a 50% inhibitory concentration (IC50) in the assay on HEK293 [1] of 0.87 µM. For the same compound, the “cytotoxicity IC50” value in the assay on HEK293 [2] was 0.097 µM. Besides, the maximal inhibition in the assay on HEK293 [3] came to 86.

`Nc1nc(F)nc2c1ncn2[C@@H]1O[C@H](CO)[C@@H](O)[C@H]1O` came in with an IC50 in the assay on HEK293 [1] of 2.9 µM. Besides, in the assay on HEK293 [2], the “cytotoxicity IC50” value was 11 µM. Also, the maximal inhibition in the assay with HEK293 [3] worked out at 98.

As to `CO/C1=C\C(C)=C\[C@@H](C)[C@@H](O)[C@@H](C)C/C(C)=C/C=C/[C@H](OC)[C@@H]([C@@H](C)[C@@H](O)[C@H](C)[C@@]2(O)C[C@@H](O)[C@H](C)[C@@H](C(C)C)O2)OC1=O`, the IC50 with HEK293 [1] was 5.3 µM. Besides, the “cytotoxicity IC50” value with HEK293 [2] is 80 µM. The compound also came in with a maximal inhibition in the assay on HEK293 [3] of 101.

In the assay on HEK293 [1], `O=C(Nc1cc(C(F)(F)F)cc(C(F)(F)F)c1)c1cc(Cl)ccc1O` yielded a half-inhibitory concentration (IC50) of 3.9 µM. Moreover, the “cytotoxicity IC50” value in the assay with HEK293 [2] worked out at 0.71 µM. In the assay on HEK293 [3], this compound returned a maximal inhibition of 99.

`O=C1C(Cl)=C(NCCN2CCOCC2)C(=O)c2ncccc21` displayed an IC50 in the assay with HEK293 [1] of 16 µM. Moreover, the “cytotoxicity IC50” value in the assay with HEK293 [2] worked out at 20 µM. This compound gave a maximal inhibition in the assay on HEK293 [3] of 104.

`O=C(c1ccc(Nc2nccc(-c3cc4ccccc4s3)n2)cc1)N1CCC(N2CCCC2)CC1` came in with an IC50 with HEK293 [1] of 16 µM. For the same compound, the “cytotoxicity IC50” value in the assay on HEK293 [2] was over 100 µM. Besides, the maximal inhibition with HEK293 [3] worked out at 100.
